Test results as given in the SangsterLogP compilation.

Assay: method code SF-GLC, from DOI: 10.1016/0048-3575(78)90090-1

Compared with `CC(=O)Oc1c(Cl)c(Cl)c(Cl)c(Cl)c1Cl`, `OCC1C(Cl)C(Cl)C(Cl)C(Cl)C1Cl` (stereo not given) is lower in logP: 3.4 for the first, 2.94 for the second.

First: OC1C(Cl)C(Cl)C(Cl)C(Cl)C1Cl (stereo not given)
Second: CC1C(Cl)C(Cl)C(Cl)C(Cl)C1Cl (stereo not given)
The logP of the first is lower: 2.54 for the first, 4.04 for the second.

Compared with `ClC1CC(Cl)C(Cl)CC1Cl` (stereo not given), `ClC1CC(Cl)C(Cl)C(Cl)C1Cl` (stereo not given) is higher in logP: 2.82 for the first, 3.53 for the second.

`ClC1C(Cl)C(Br)C(Cl)C(Cl)C1Br` (stereo not given) and `ClC1C(Cl)C(Cl)C(Br)C(Br)C1Cl` (stereo not given) are within 0.2 log units of each other in logP: 3.98 for the first, 3.88 for the second.

`COC1CC(Cl)C(Cl)C(Cl)C1Cl` (stereo not given) and `COC1C(Cl)C(Cl)C(Cl)C(Cl)C1Cl` (stereo not given) are within 0.2 log units of each other in logP: 2.99 for the first, 3.14 for the second.

First: FC1C(Cl)C(Cl)C(Cl)C(Cl)C1Cl (stereo not given)
Second: ClC1C(Cl)C(Cl)C(I)C(Cl)C1Cl (stereo not given)
The logP of the first is lower: 3.19 for the first, 3.96 for the second.

Going from `CCOC1C(Cl)C(Cl)C(Cl)C(Cl)C1Cl` (stereo not given) to `FC(F)(F)COC1C(Cl)C(Cl)C(Cl)C(Cl)C1Cl` (stereo not given), the logP rises from 3.69 to 4.06.

Going from `CC1C(Cl)C(Cl)C(C)C(Cl)C1Cl` (stereo not given) to `COC1C(Cl)C(Cl)C(Cl)C(Cl)C1OC` (stereo not given), the logP falls from 4.4 to 2.55.

Compared with `FC1C(Cl)C(Cl)C(Cl)C(Cl)C1Br` (stereo not given), `ClC1C(Cl)C(Cl)C(Br)C(Cl)C1Cl` (stereo not given) is higher in logP: 3.28 for the first, 3.74 for the second.

Compared with `COC1C(Cl)C(Cl)C(Cl)C(OC)C1OC` (stereo not given), `COC1C(Cl)C(Cl)C(OC)C(Cl)C1Cl` (stereo not given) is higher in logP: 1.87 for the first, 3.15 for the second.
